Where a chain is given by its changes, count along the chain named. Numbers in names are those of the source. Entries after “also recorded” stand apart in the source; their conditions may differ.
Columns and labels:
'mutant atbg1' [1] = test: Leaf colour of 'mutant atbg1' after exogenous ABA; type: in vivo, Arabidopsis thaliana; details: exogenous ABA applied to one week cultivated 'mutant atbg1', 3 more days of culture
Source text: Exogenous ABA was applied to one week cultivated ‘mutant atbg1’, followed by culture for 3 more days.

'mutant atbg1' [2] = test: Stomatal size of 'mutant atbg1' at night after ABA treatment; type: in vivo, Arabidopsis thaliana; details: 10 μM and 50 μM ABA at 23 o'clock, measured at 24 o'clock, n=200
Description: (§1) Particularly, the transgenic plant was cultured at 20° C. with 70% relative humidity under 16/8 hour-light/dark cycle and the stomatal sizes were measured at noon and midnight (n=150) (FIG. 13).
(§2) To investigate the effect of exogenous ABA on stomatal closure, the ‘mutant atbg1’ plant was treated with 10 μM and 50 μM of ABA at 23 o'clock and stomatal sizes were measured at 24 o'clock (FIG. 14). Control group was treated with 100 μM of NAME (L-nitroargininemethylester), known as […], during the time of stomatal disclosure, that is for 10 hours from 4 o'clock, and stomatal sizes were measured at midnight.

AtBG1:HA = test: AtBG1 glycosylation in protoplasts, blotting with anti-HA antibody; type: cell-based, Arabidopsis thaliana; details: anti-HA blot
Source text: To confirm the above result that AtBG1 localizes to ER, the present inventors examined AtBG1 glycosylation. Glycosylation of protein produces glycan and this glycan moiety of the protein localizing to the ER is sensitive to both endo-H and PNGase F, meaning the glycan moiety is easily digested by endo-H and PNGase F enzyme activities (Kuznetsov G. et al., J. Biol. Chem. 268: 2001, 1993). Tunicamycin is an inhibitor of the glycosylation.
Protein extract obtained from protoplasts of AtBG1:HA transfected plant and treated with endo-H and PNGase F (not treated with tunicamycin), protein extract obtained from protoplasts of tunicamycin treated Arabidopsis thaliana transformed with AtBG1 and protein extract obtained from protoplasts of tunicamycin-non-treated Arabidopsis thaliana transformed with AtBG1 were examined by blotting using anti-HA antibody.

wild type = test: Stomatal size of wild type at midnight after NAME treatment; type: in vivo, Arabidopsis thaliana; details: 100 μM NAME for 10 hours from 4 o'clock, measured at midnight
Description: as §1, §2

[3] = ABA-GE hydrolysis by immunopurified AtBG1 proteins, ABA fraction by HPLC and ELISA; type: biochemical, Arabidopsis thaliana; details: 100 mM citrate buffer pH 5.5, 37° C., one and half hours

In the case of CC1=CC(=O)CC(C)(C)[C@@]1(O)/C=C/C(C)=C\C(=O)O [ABA, abscisic acid], the leaf colour phenotype ('mutant atbg1' [1]) is reported as “yellow leaf turned into normal green” and the “stomatal closure in the night” value ('mutant atbg1' [2]) is reported as “induced stomatal closure in the night”.

With Tunicamycin the “size of AtBG1:HA versus tunicamycin-non-treated protoplasts” value (AtBG1:HA) was “smaller”.

With COC(=O)[C@@H](N)CCCNC(=N)N[N+](=O)[O-] [NAME, L-nitroargininemethylester] the stomatal closure (wild type) was “defects in stomatal closure”.

B1: AtBG1:HA: HA (hemagglutinin) tagged wild type AtBG1, Arabidopsis thaliana β-glucosidase 1 (protein)
chain: QGPVCGAGLPDKFSRLNFPEGFIWGTATAAFQVEGAVNEGCRGPSMWDTFTKKFPHRCENHNADVAVDFYHRYKEDIQLMKDLNTDAFRLSIAWPRIFPHGRMSKGISKVGVQFYHDLIDELLKNNIIPLVTVFHWDTPQDLEDEYGGFLSGRIVQDFTEYANFTFHEYGHKVKHWITFNEPWVFSRAGYDNGKKAPGRCSPYIPGYGQHCQDGRSGYEAYQVSHNLLLSHAYAVDAFRNCKQCAGGKIGIAHSPAWFEPQDLEHVGGSIERVLDFILGWHLAPTTYGDYPQSMKDRVGHRLPKFTEAEKKLLKGSTDYVGMNYYTSVFAKEISPDPKSPSWTTDSLVDWDSKSVDGYKIGSKPFNGKLDVYSKGLRYLLKYIKDNYGDPEVIIAENGYGEDLGEKHNDVNFGTQDHNRKYYIQRHLLSMHDAICKDKVNVTGYFVWSLMDNFEWQDGYKARFGLYYIDFQNNLTRHQKVSGKWYSEFLKPQFPTSKLREEL
modifications: left off: small tags and cut ends
In the case of B1, the “ABA generated from ABA-GE (HPLC peak / ELISA detection)” value [3] is reported as “novel peaks at the position for ABA; also recorded: hydrolyzes ABA-GE to form ABA” and the “ABA generated from ABA-GE (HPLC peak / ELISA detection)” value ([3]; listed as wild type AtBG1 protein) is reported as “high level of ABA”.

B2: AtBG1[E207Q]:HA: HA tagged AtBG1 with substitution mutation at position 207, an active site of β-glycosidase (protein, UniProt Q9SE50 27-528, looked up, variant E207Q)
Beta-D-glucopyranosyl …: B1 chain with E181Q
modifications: HA tag
For B2, the “ABA generated from ABA-GE (HPLC peak / ELISA detection)” value [3] was “novel peaks at the position for ABA” and the “amount of ABA released from ABA-GE, relative to that of the wild type” value ([3]; ABA peaks quantified by ELISA with anti-ABA antibody) was 20%.

From patent publication US7795498B2, “Use of AtBG1 gene for the generation of transgenic plants with increased resistance to various abiotic stress” (Postech Foundation, priority 2004, dated 2010)
